Patent US20230076733A1, “Combination Therapy” (AGENCY FOR SCIENCE, TECHNOLOGY AND RESEARCH, priority 2020, published 2023)
Values joined by “and” are separate entries in the source; they are usually repeats but may differ in a detail not shown here. Equal entries are not always repeated.

What was measured:
Format in all cases: cell-based
[1] = tested on: HPAF-II cells; assay: soft agar colony formation assay, HPAF-II cells; details: for Colony count: HPAF-II, duplicate wells
Experimental: (§1) The IC50 and EC50 values for each combination partner (a) and (b) with the specific cell lines are determined from the response plot. A dose-response assay for each combination partner and the combination at different concentrations based on the IC50 values of each combination partner was performed. Computed EC50-EC95 values were then generated by a software (as disclosed herein) based on the drug concentration and the respective colony growth numbers.
(§2) 6. Cell lines used and number of cells seeded per well
(§3) (1) Base Layer—0.6% Agar per 300 μL per well.
(§4) Microwave the agar for 1-2 min so that it is completely melted. Add 5.4 ml of the melted agar into 21.6 ml of pre-warmed media (All media and agar preparation is made in excess for 2.5 plates). Aliquot 300 μl of the suspension into each well, avoiding the first and last columns of the plates. Fill the first and last columns of wells with 500 μl of sterile water or phosphate buffered saline. Incubate the plates in 37° C. incubator for 45 min-1 hr to allow agar to solidify.
(§5) (2) Middle Layer— 0.3% Agar plus corresponding number of cells per well
(§6) Trypsinize the adherent cells and suspend them in 5 ml of media. Determine the number of cells in the suspension and calculate the volume of cell suspension required for seeding. Mix the agar and media together first, excluding the volume of cell suspension. Add the cell suspension last into the mixture. Mix well and aliquot 250 μl into each well containing the base layer. Incubate the plates in a 37° C. incubator for 1-1.5 hrs to allow the agar to solidify.
(§7) Prepare the required concentration of compounds based on the IC50 values of each drug.
(§8) (Pre-determine the IC50 values for each drug with the corresponding cell-line using a dose-response assay)
(§9) Row A& B: Aliquot 250 μl of diluted Drug A per well
(§10) Row C&D: Aliquot 250 μl of diluted Drug B per well
(§11) Row E& F: Aliquot 250 μl of diluted Drug A and B mixed at 1:1 ratio for each well
(§12) Assay Results Analysis Method • 1. Score the colonies after 2 to 3 weeks depending on the colony forming status for different cell line. • 2. Before scoring the colonies, add 35 μl MTT (5 mg/ml) to the wells with cells and incubate at 37° C. for 2-3 hrs depending on the intensity of colour development. • 3. Once the colonies are stained, count the total number of colonies formed using the Oxford Optronix GelCount® instrument. • 4. Average the total number of colonies obtained for each drug dose point and represent it as a fraction over the control. This represents the fraction of colony growth. […] Incorporate the fraction of inhibition and the corresponding dose values into the Chou Talalay Software available online (http://www.combosyn.com/) to obtain the combination index values. • 6. The combination index values will give an indication as to whether the combined drugs are synergistic, antagonistic or additive in the treated cells, as shown in Table 2 below.
FIG. 4 illustrates of a dose-response assay plate containing HPAF-II cells (Test 1) after testing compounds at different concentrations based on the IC50 values of each compound. HPAF-II is a cell line established from pancreatic ductal adenocarcinoma (pancreatic cancer).

[2] = tested on: MCAS cells; assay: soft agar colony formation assay, MCAS cells; details: for Colony count: MCAS, duplicate wells
Experimental: as §1, §2, §3, §4, §5, §6, §7, §8, §9, §10, §11
as §12, with “6.” for “6. The combination index values will give an indication as to whether the combined drugs are synergistic, antagonistic or additive in the treated cells, as shown in Table 2 below.”
MCAS is a cell line established from ovarian mucinous cystadenocarcinoma (ovarian cancer).

[3] = tested on: EGI-1 cells; assay: soft agar colony formation assay, EGI-1 cells; details: for Colony count: duplicate wells
Experimental: as §1, §2, §3, §4, §5, §6, §7, §8, §9, §10, §11, §12
FIG. 2 illustrates a dose-response assay plate containing EGI-1 cells (Test 1) after testing compounds at different concentrations based on the IC50 values of each compound. EGI-1 is a cell line established from cholangiocarcinoma (bile duct adenocarcinoma).

[4] = tested on: TFK-1 cells; assay: soft agar colony formation assay, TFK-1 cells; details: for Colony count: duplicate wells
Experimental: as §1, §2, §3, §4, §5, §6, §7, §8, §9, §10, §11, §12
FIG. 10 illustrates a dose-response assay plate containing TFK-1 cells (Test 1) after testing compounds at different concentrations based on the IC50 values of each compound. TFK-1 is a cell line established from cholangiocarcinoma (bile duct adenocarcinoma).

With `Cn1c(=O)c2c(ncn2CC(=O)Nc2ccc(-c3ccccc3)nn2)n(C)c1=O` [Ex 1, 2-(1,3-dimethyl-2,6-dioxo-2,3-dihydro-1H-purin-7 (6H)-yl)-N-(6-phenylpyridazin-3-yl)acetamide] the IC50 ([1]; HPAF-II cells, pre-determined by dose-response assay) was 7.7 nM, the Colony count ([1]; Test 1, 0.25x IC50: dose Olaparib 9.7975, Ex 1 0,001929, combination both 1:1) was 564 and 493 and the Colony count ([1]; Test 1, 0.5x IC50: dose Olaparib 19.535, Ex 1 0.003883, combination both 1:1) was 499 and 416. For the same compound, the Colony count ([1]; Test 1, 1x IC50: dose Olaparib 39.19, Ex 1 0,007577, combination both 1:1) was 387 and 453, the Colony count ([1]; Test 1, 2x IC50: dose Olaparib 78.38, Ex 1 0.015354, combination both 1:1) was 362 and 345 and the Colony count ([1]; Test 1, 4x IC50: dose Olaparib 156.76, Ex 1 0.030707, combination both 1:1) was 260 and 201. For the same compound, the Colony count ([1]; Test 2, 0.25x IC50: dose Olaparib 9.7975, Ex 1 0.001929, combination both 1:1) was 350 and 489, the Colony count ([1]; Test 2, 0.5x IC50: dose Olaparib 13.595, Ex 1 0.003838, combination both 1:1) was 415 and 426 and the Colony count ([1]; Test 2, 1x IC50: dose Olaparib 39.19, Ex 1 0.007677, combination both 1:1) was 296. For the same compound, the Colony count ([1]; Test 2, 2x IC50: dose Olaparib 78.38, Ex 1 0.015354, combination both 1:1) was 200 and 150, the Colony count ([1]; Test 2, 4x IC50: dose Olaparib 156.76, Ex 1 0.030707, combination both 1:1) was 127 and 105 and the IC50 ([2]; MCAS cells, pre-determined by dose-response assay) was 287 nM. For the same compound, the Colony count ([2]; Test 1, 0.25x IC50: dose Olaparib 0.99475, Ex 1 0.07175, combination both 1:1) was 598 and 557, the Colony count ([2]; Test 1, 0.5x IC50: dose Olaparib 1.9895, Ex 1 0.1435, combination both 1:1) was 462 and 445 and the Colony count ([2]; Test 1, 1x IC50: dose Olaparib 3.979, Ex 1 0.287, combination both 1:1) was 301 and 328. For the same compound, the Colony count ([2]; Test 1, 2x IC50: dose Olaparib 7.958, Ex 1 0.574, combination both 1:1) was 252 and 273, the Colony count ([2]; Test 1, 4x IC50: dose Olaparib 15.918, Ex 1 1.148, combination both 1:1) was 147 and 151 and the Colony count ([2]; Test 2, 0.25x IC50: dose Olaparib 0.99475, Ex 1 0.07175, combination both 1:1) was 976 and 921. For the same compound, the Colony count ([2]; Test 2, 0.5x IC50: dose Olaparib 1.9895, Ex 1 0.1435, combination both 1:1) was 744 and 875, the Colony count ([2]; Test 2, 1x IC50: dose Olaparib 3.979, Ex 1 0.287, combination both 1:1) was 694 and 706 and the Colony count ([2]; Test 2, 2x IC50: dose Olaparib 7.958, Ex 1 0.574, combination both 1:1) was 644 and 588. The Colony count ([2]; Test 2, 4x IC50: dose Olaparib 15.916, Ex 1 1.148, combination both 1:1) was 419 and 326, the Colony count ([3]; EGI-1, Test 1, 0.25x IC50: dose Olaparib 2.16362, Ex 1 0.00687, combination both 1:1) was 1742 and 1591 and the Colony count ([3]; EGI-1, Test 1, 0.5x IC50: dose Olaparib 4.32725, Ex 1 0.01375, combination both 1:1) was 1351. The Colony count ([3]; EGI-1, Test 1, 1x IC50: dose Olaparib 8.6545, Ex 1 0.0275, combination both 1:1) was 985 and 912, the Colony count ([3]; EGI-1, Test 1, 2x IC50: dose Olaparib 17.309, Ex 1 0.055, combination both 1:1) was 608 and 646 and the Colony count ([3]; EGI-1, Test 1, 4x IC50: dose Olaparib 34.618, Ex 1 0.11, combination both 1:1) was 515 and 465. For the same compound, the Colony count ([3]; EGI-1, Test 2, 0.25x IC50: dose Olaparib 2.16362, Ex 1 0.00687, combination both 1:1) was 1488 and 1451, the Colony count ([3]; EGI-1, Test 2, 0.5x IC50: dose Olaparib 4.32725, Ex 1 0.01375, combination both 1:1) was 1242 and 1139 and the Colony count ([3]; EGI-1, Test 2, 1x IC50: dose Olaparib 8.6545, Ex 1 0.0275, combination both 1:1) was 816 and 771. The Colony count ([3]; EGI-1, Test 2, 2x IC50: dose Olaparib 17.309, Ex 1 0.055, combination both 1:1) was 568 and 476, the Colony count ([3]; EGI-1, Test 2, 4x IC50: dose Olaparib 34.618, Ex 1 0.11, combination both 1:1) was 434 and 412 and the IC50 ([3]; EGI-1 cells, pre-determined by dose-response assay) was 27.5 nM. The Colony count ([4]; TFK-1, Test 1, 0.25x IC50: dose Olaparib 4.5, Ex 1 3, combination both 1:1) was 921 and 950, the Colony count ([4]; TFK-1, Test 1, 0.5x IC50: dose Olaparib 9, Ex 1 6, combination both 1:1) was 805 and 700 and the Colony count ([4]; TFK-1, Test 1, 1x IC50: dose Olaparib 18, combination both 1:1) was 557 and 581. For the same compound, the Colony count ([4]; TFK-1, Test 1, 2x IC50: dose Olaparib 36, Ex 1 24, combination both 1:1) was 402 and 384, the Colony count ([4]; TFK-1, Test 1, 4x IC50: dose Olaparib 72, Ex 1 48, combination both 1:1) was 239 and 198 and the Colony count ([4]; TFK-1, Test 2, 0.25x IC50: dose Olaparib 4.5, Ex 1 3, combination both 1:1) was 916 and 840. For the same compound, the Colony count ([4]; TFK-1, Test 2, 0.5x IC50: dose Olaparib 9, Ex 1 6, combination both 1:1) was 770 and 818, the Colony count ([4]; TFK-1, Test 2, 1x IC50: dose Olaparib 18, combination both 1:1) was 567 and 559 and the Colony count ([4]; TFK-1, Test 2, 2x IC50: dose Olaparib 36, Ex 1 24, combination both 1:1) was 336 and 249. The Colony count ([4]; TFK-1, Test 2, 4x IC50: dose Olaparib 72, Ex 1 48, combination both 1:1) was 101 and 148 and the IC50 ([4]; TFK-1 cells, pre-determined by dose-response assay) was 12000 nM.
